What was measured:
rats = assay: Daily 28-day repeated dose toxicology study, rats; type: in vivo, rat; conditions: 0, 10, 50, or 100 mg/kg/day, daily 28 days
Procedure: Based on negative in vivo and in vitro genotoxicity studies, the carcinogenic risk of MDMA·HCl is low. No tumors were reported after daily 28-day repeated dose toxicology studies of MDMA in rats (0, 10, 50, or 100 mg/kg/day) or dogs (0, 3, 9, or 15 mg/kg/day).

male and female rats = assay: Fertility study, male and female rats; type: in vivo, rat
Procedure: MDMA (0, 2.5, 5, and 10 mg/kg/day) was orally administered to male and female rats before mating. Males were dosed once daily for 28 days prior to pairing and dosing continued until euthanasia. Females were dosed once daily for 21 days prior to pairing and dosing continued though gestational day seven.

[1] = test system: participants with severe PTSD; assay: MAPP1 Phase 3: CAPS-5 total severity score; type: in vivo, human; conditions: for CFB in CAPS-5 Total Severity Score, LS mean for treatment difference (95% CI) / CFB in CAPS-5 Total Severity Score, LS mean / CAPS-5 Total Severity Score, Mean / CAPS-5 Total Severity Score, Median / CFB in CAPS-5 Total Severity Score, Mean / CFB in CAPS-5 Total Severity Score, Median / Loss of Diagnosis, % / Non-Responder (<10-point reduction in CAPS-5 Total Severity Score), % / Remission, % / Responder (≥10-point reduction in CAPS-5 Total Severity Score), %: MAPP1, mITT; for CFB in CAPS-5 Total Severity Score, LS mean for treatment difference (95% CI): vs placebo with therapy
From the text: FIG. 36 and FIG. 37 show the time course of improvement in Clinician Administered PTSD Scale for DSM-5 (CAPS-5) total severity score versus placebo. Each show a treatment difference between MDMA and placebo after 3 medication sessions with psychological intervention. […] Between the second and third treatment sessions, the difference between the groups appeared to continue to increase in both studies. The primary efficacy measure was change from baseline in the CAPS-5 total severity score at 18 weeks, which was evaluated 2 months after the final dosing session. The CAPS-5 is a 30-item, clinician-rated scale used to assess severity of PTSD symptoms and diagnostic status according to DSM-5 criteria, as described herein. Scores on the CAPS 5 range from 0 to 80, with higher scores indicating more severe PTSD symptoms. In both studies, a secondary efficacy measure was change from baseline in Sheehan Disability Scale (SDS) mean item scores at 18 weeks. The modified SDS is a 3-item, clinician-rated scale measuring the degree of functional impairment in work, family, and social life. Scores on the SDS mean items range from 0 to 10, with higher scores indicating more functional impairment. In these studies, the efficacy assessments were administered by blinded independent raters 18 to 30 days after medication sessions 1 and 2.
A flexible dose of MDMA hydrochloride salt (referred to as MDMA throughout) or placebo, followed by a supplemental half-dose unless contraindicated, was administered during the Treatment Period with manualized psychotherapy in three blinded monthly Experimental Sessions. This ˜12-week Treatment Period was preceded by three Preparatory Sessions. During the Treatment Period, each Experimental Session was followed by three Integrative Sessions of non-drug psychotherapy. Experimental Sessions were followed by an overnight stay. The Primary Outcome measure, the change in Clinician Administered PTSD Scale (CAPS-5), was assessed by a blinded centralized Independent Rater (IR) pool multiple times throughout the study. Three blinded manualized Experimental Sessions of psychotherapy assisted by flexible doses of MDMA·HCl or placebo were administered (see Table 28 below). Initial doses per Experimental Session include 80 mg or 120 mg MDMA compounded with mannitol and magnesium stearate or indistinguishable weight placebos comprised entirely of mannitol and magnesium stearate, followed 1.5 to 2 hours later by a supplemental half-dose (40 mg or 60 mg MDMA·HCl or placebo). Total amounts of MDMA·HCl to be administered per Experimental Session range from 80 mg to 180 mg. All drug is encapsulated with HPMC capsules.
In the first Experimental Session, the initial dose was 80 mg MDMA·HCl or placebo. In the second and third Experimental Sessions, the initial dose may be increased to 120 mg MDMA·HCl or placebo unless contraindicated. The choice of whether to keep the dose the same or change it from the first Experimental Session was made by the therapy team the in consultation with the site physician based on observed response, tolerability to the previously administered dose, and discussion with the participant. In each Experimental Session, 1.5 to 2 hours after the initial dose is given, the participant was administered a supplemental half-dose unless contraindicated. If an AE requiring medical attention occurs between the initial and supplemental dose this was evaluated as a potential contraindication by the site physician. If a participant prefers not to take the supplemental dose, the reason was documented. Participants will not know if they have been assigned MDMA or placebo but can indicate if they want the dose to change or remain the same.
The MDMA assisted therapy (MDMA-AT) approach is detailed in the “Manual for MDMA Assisted Therapy in the Treatment of PTSD,” published by MAPS (MDMA Treatment Manual, available at maps.org/treatment-manual). […]

[2] = molecular target: organic cation transporter (OCT1) (Homo sapiens, UniProt O15245); assay: Transporter inhibition, OCT1; conditions: at supratherapeutic concentrations
Sequence of organic cation transporter (OCT1) (O15245 whole entry): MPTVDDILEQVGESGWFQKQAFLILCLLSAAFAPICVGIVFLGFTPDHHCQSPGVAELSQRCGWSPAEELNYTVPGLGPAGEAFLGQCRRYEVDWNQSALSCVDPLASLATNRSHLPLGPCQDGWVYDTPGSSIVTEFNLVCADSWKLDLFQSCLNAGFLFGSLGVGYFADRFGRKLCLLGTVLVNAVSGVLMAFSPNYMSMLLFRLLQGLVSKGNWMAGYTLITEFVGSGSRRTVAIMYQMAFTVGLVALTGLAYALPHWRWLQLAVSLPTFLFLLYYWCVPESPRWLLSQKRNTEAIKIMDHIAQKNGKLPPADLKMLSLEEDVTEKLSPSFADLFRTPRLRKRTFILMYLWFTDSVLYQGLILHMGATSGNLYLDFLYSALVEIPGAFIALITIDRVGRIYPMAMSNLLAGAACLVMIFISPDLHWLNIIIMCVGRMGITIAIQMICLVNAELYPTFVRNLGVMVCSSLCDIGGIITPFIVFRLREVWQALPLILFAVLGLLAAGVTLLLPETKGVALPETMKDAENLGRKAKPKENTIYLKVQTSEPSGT

[3] = molecular target: bile salt export pump (BSEP) (Homo sapiens, UniProt O95342); assay: Transporter inhibition, BSEP
Sequence of bile salt export pump (BSEP) (O95342 whole entry): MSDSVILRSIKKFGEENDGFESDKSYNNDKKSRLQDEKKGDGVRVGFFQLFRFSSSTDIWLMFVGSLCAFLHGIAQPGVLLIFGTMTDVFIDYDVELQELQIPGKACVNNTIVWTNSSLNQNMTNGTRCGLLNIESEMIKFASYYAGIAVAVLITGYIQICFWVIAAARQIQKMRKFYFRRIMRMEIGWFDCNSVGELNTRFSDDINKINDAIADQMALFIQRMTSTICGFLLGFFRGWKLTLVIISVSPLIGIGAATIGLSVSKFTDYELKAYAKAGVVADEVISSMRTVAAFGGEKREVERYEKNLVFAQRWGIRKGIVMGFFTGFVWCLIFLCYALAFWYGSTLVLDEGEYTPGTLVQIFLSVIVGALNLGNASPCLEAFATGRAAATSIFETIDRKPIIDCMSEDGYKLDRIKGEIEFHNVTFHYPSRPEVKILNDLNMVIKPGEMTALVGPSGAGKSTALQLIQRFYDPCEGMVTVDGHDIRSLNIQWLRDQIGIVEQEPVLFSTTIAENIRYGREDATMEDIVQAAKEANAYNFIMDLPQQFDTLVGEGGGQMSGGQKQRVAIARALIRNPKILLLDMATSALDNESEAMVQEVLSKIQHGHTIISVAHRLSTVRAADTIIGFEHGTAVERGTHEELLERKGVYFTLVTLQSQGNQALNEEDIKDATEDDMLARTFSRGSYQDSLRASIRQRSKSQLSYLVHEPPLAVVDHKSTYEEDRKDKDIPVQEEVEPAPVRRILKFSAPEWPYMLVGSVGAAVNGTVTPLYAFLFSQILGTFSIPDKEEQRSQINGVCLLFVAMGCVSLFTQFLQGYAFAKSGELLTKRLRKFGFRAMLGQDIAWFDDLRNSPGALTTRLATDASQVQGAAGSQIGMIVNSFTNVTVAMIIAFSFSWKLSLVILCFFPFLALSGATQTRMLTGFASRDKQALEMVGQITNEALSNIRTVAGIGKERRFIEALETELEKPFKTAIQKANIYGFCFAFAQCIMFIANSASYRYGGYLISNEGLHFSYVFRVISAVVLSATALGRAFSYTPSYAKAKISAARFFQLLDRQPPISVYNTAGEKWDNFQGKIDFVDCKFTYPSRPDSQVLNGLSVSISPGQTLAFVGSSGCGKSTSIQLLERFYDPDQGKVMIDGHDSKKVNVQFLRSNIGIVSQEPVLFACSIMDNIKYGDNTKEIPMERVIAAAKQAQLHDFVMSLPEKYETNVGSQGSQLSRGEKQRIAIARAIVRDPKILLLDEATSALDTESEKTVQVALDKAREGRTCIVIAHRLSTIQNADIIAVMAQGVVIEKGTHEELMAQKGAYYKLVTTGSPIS

MATE2-K = MATE2-K (Homo sapiens, UniProt Q86VL8); assay: Transporter inhibition, MATE2-K
Sequence of MATE2-K (Q86VL8 1-566 isoform Q86VL8-3): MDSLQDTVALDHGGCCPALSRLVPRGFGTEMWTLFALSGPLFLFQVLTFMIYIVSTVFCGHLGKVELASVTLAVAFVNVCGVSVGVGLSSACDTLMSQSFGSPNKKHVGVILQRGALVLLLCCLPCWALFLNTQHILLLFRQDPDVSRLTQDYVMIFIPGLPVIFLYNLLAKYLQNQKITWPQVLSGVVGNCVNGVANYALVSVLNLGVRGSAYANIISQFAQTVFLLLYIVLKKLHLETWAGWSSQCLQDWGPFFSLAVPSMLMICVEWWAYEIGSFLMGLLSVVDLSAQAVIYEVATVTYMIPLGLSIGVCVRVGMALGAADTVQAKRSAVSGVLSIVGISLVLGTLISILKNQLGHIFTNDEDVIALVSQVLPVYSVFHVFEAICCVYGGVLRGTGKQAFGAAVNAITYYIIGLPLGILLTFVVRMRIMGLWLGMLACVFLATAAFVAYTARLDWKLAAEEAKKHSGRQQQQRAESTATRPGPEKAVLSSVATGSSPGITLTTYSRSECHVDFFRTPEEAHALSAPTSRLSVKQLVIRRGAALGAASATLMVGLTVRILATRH

OATP1B3 = OATP1B3 (Homo sapiens, UniProt Q9NPD5); assay: Transporter inhibition, OATP1B3
Sequence of OATP1B3 (Q9NPD5 whole entry): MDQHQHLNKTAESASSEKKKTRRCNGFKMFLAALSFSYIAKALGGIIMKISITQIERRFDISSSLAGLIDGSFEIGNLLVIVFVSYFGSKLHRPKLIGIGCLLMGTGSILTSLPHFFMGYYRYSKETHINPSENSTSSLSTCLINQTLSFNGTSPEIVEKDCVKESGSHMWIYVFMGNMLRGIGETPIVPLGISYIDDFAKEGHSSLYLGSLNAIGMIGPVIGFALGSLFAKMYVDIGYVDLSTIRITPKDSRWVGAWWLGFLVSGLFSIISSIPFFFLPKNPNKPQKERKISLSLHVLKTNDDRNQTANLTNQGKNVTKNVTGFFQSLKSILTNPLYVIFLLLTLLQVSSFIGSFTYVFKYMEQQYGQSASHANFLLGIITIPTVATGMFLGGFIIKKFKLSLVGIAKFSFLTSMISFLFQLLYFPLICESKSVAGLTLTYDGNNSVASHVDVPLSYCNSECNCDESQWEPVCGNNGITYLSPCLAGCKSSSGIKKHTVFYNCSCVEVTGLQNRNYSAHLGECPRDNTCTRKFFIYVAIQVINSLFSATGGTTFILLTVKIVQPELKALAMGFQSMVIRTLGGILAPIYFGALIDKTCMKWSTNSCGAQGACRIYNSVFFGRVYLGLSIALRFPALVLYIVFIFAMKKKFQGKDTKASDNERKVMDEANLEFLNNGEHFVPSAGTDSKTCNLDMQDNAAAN

[4] = de jure estimand, Baseline CAPS-5 T1 (Visit 3)
[5] = de jure estimand, CAPS-5 T2 (Visit 8)
[6] = de jure estimand, CAPS-5 T3 (Visit 13)
[7] = de jure estimand, CAPS-5 T4 (Visit 19)
[8] = de jure estimand, CFB to T2 (Visit 8)
[9] = de jure estimand, CFB to T3 (Visit 13)
[10] = de jure estimand, CFB to T4 (Visit 19)
[11] = T4 (primary) endpoint (Visit 19)

## CNC(C)Cc1ccc2c(c1)OCO2 (centres unmarked) [MDMA, 3,4-methylenedioxymethamphetamine]
rats
  tumors: No tumors
Male and female rats; all MDMA-treated males relative to controls
  mean prostate gland weights: decreased
Male and female rats; oral, up to the highest dose evaluated (10 mg/kg/day)
  fertility and reproductive performance: No effect on fertility and reproductive performance
[1]; FIG. 36 and FIG. 37, both studies
  onset of treatment efficacy (CAPS-5 versus placebo): after the second session
[1]; MMRM, T2 (Visit 8)
  CFB in CAPS-5 Total Severity Score, LS mean for treatment difference (95% CI): −3.69 (−7.93, 0.54)
[1]; MMRM, T3 (Visit 13)
  CFB in CAPS-5 Total Severity Score, LS mean for treatment difference (95% CI): −8.41 (−13.53, −3.29)
[1]; MMRM, T4 (Visit 19)
  CFB in CAPS-5 Total Severity Score, LS mean for treatment difference (95% CI): −11.86 (−17.41, −6.32)
[1]; de jure estimand, MMRM, CFB to T2 (Visit 8)
  CFB in CAPS-5 Total Severity Score, LS mean: −10.40
[1]; de jure estimand, MMRM, CFB to T3 (Visit 13)
  CFB in CAPS-5 Total Severity Score, LS mean: −17.83
[1]; de jure estimand, MMRM, CFB to T4 (Visit 19)
  CFB in CAPS-5 Total Severity Score, LS mean: −24.50
[1]; [4]
  CAPS-5 Total Severity Score, Mean: 44.0
  CAPS-5 Total Severity Score, Median: 43.5
[1]; [5]
  CAPS-5 Total Severity Score, Mean: 33.7
  CAPS-5 Total Severity Score, Median: 34.5
[1]; [6]
  CAPS-5 Total Severity Score, Mean: 26.2
  CAPS-5 Total Severity Score, Median: 28.0
[1]; [7]
  CAPS-5 Total Severity Score, Mean: 19.5
  CAPS-5 Total Severity Score, Median: 18.5
[1]; [8]
  CFB in CAPS-5 Total Severity Score, Mean: −10.3
  CFB in CAPS-5 Total Severity Score, Median: −9.0
[1]; [9]
  CFB in CAPS-5 Total Severity Score, Mean: −17.7
  CFB in CAPS-5 Total Severity Score, Median: −17.5
[1]; [10]
  CFB in CAPS-5 Total Severity Score, Mean: −24.4
  CFB in CAPS-5 Total Severity Score, Median: −25.0
[1]; T2 endpoint (Visit 8)
  Loss of Diagnosis, %: (23.9) %
  Non-Responder (<10-point reduction in CAPS-5 Total Severity Score), %: (54.3) %
  Remission, %: (8.7) %
  Responder (≥10-point reduction in CAPS-5 Total Severity Score), %: (45.7) %
[1]; T3 endpoint (Visit 13)
  Loss of Diagnosis, %: (57.1) %
  Non-Responder (<10-point reduction in CAPS-5 Total Severity Score), %: (26.2) %
  Remission, %: (11.9) %
  Responder (≥10-point reduction in CAPS-5 Total Severity Score), %: (73.8) %
[1]; [11]
  Loss of Diagnosis, %: (66.7) %
  Non-Responder (<10-point reduction in CAPS-5 Total Severity Score), %: (11.9) %
  Remission, %: (33.3) %
  Responder (≥10-point reduction in CAPS-5 Total Severity Score), %: (88.1) %
[1]; MAPP1, MMRM, de jure estimand, mITT
  change from Baseline to Visit 19 in CAPS-5 total severity scores: −24.50
[1]; MAPP1, Visit 19
  no longer met PTSD diagnostic criteria: 66.7%
  remission (CAPS-5 ≤11 and no longer meeting PTSD diagnostic criteria): 33.3%
  responders (≥10-point reduction in CAPS-5 total severity score): 88.1%
[2]
  inhibition of OCT1: inhibits
[3]
  inhibition of BSEP: not an inhibitor
MATE2-K
  inhibition of MATE2-K: not an inhibitor
OATP1B3
  inhibition of OATP1B3: not an inhibitor

Source: patent US20250134855A1, “CO[…] AND METHODS OF USING SAME” (LYKOS THERAPEUTICS, INC., priority 2022, published 2025)
